The test concerns the target human PAD4 (hPAD4) (Homo sapiens (Human), UniProt Q9UM07). The test is described as follows: RFMS Human PAD4 Functional Assay 1. The format is biochemical. The conditions noted are these: RFMS assay 1; 5 nM hPAD4, 250 μM BAEE substrate, 50 μM calcium, 37° C. As for the experimental part:
RFMS Human PAD4 Functional Assay 1:
Compounds were solubilized in 100% DMSO to achieve all) mM compound concentration. Compound stock solutions were stored at RT. A series of dilutions were prepared in DMSO and mixed 8 times with 20 μL mixing volume. Final top concentration of compound in the assay is 50 μM. Final assay conditions were as follows: • Reaction volume: 26 μl • Assay buffer: 25 mM hepes, pH 7.5, 5 mM NaCl, 1 mM DTT, 0.2 mg/ml BSA, 0.01% CHAPS, 50 μM Calcium, and 5 μM TPEN • Final concentrations: 5 nM hPAD4 enzyme, 250 μM BASE, and 0.5% DMSO • Total incubation time: 30 mins compound and enzyme preincubation at 37° C., 90 min enzyme/substrate reaction, 30 min reaction with phenyl glyoxal at 37° C. • Stop solution: 40 μl 5% TCA in ACN
0.13 μL of compound solution was added to 13 μL of 10 nM PAD4 in assay buffer. After 30 min 13 μl of 500 μM of BAEE was added in 25 mM hepes, pH 7.5, 5 mM NaCl, 1 mM DTT, 0.2 mg/ml BSA, 0.01% CHAPS, 50 μM Calcium, 5 μM TPEN was added and the reaction incubated for 90 min at 37° C. The enzymatic reaction was quenched by addition of 15 μl of 6.1N TCA, 100% Final Concentration is 20%, 35 μl of 8.5 mM phenyl glyoxal (final concentration 4 mM) is then added and the reaction is incubated for 30 min at 37° C.
After 30 minutes the plates are spun down to remove all precipitate. The enzyme reaction was quenched with an equal volume of methanol containing internal standard (modified citrulline). Samples were loaded onto the Rapid Fire RF300 system (Agilent) wherein they were first sipped for 1000 ms and then directly loaded to a C18 separations cartridge using a mixture of acetonitrile containing 0.01% formic acid for 3000 ms desalting. The flow rate of the mobile phase was 1.5 ml/min. Once the samples were eluted from the cartridge, a mobile phase of acetonitrile containing 0.01% formic acid was used to move the samples into the mass spectrometer for 4000 ms at a flow rate of 1.25 ml/min/Sciex API5500 triple quadrupole mass spectrometer (Applied Biosystems) equipped with ESI was used to analyze the peptidyl citrulline and internal standard ions.
MRM transition of product and internal standard were monitored at m/z 424.5 to 350.4 and m/z 293 to 247 respectively. The dwell time for each transition was set at 200 ms, and the ESI voltage was used at 5500 with a source temperature of 400° C. Extracted ion peaks for each transition were integrated using the Rapid Fire Integrator software. Peak area of analyte was normalized with internal standard.).
human PAD4 (hPAD4), sequence (Q9UM07 whole entry): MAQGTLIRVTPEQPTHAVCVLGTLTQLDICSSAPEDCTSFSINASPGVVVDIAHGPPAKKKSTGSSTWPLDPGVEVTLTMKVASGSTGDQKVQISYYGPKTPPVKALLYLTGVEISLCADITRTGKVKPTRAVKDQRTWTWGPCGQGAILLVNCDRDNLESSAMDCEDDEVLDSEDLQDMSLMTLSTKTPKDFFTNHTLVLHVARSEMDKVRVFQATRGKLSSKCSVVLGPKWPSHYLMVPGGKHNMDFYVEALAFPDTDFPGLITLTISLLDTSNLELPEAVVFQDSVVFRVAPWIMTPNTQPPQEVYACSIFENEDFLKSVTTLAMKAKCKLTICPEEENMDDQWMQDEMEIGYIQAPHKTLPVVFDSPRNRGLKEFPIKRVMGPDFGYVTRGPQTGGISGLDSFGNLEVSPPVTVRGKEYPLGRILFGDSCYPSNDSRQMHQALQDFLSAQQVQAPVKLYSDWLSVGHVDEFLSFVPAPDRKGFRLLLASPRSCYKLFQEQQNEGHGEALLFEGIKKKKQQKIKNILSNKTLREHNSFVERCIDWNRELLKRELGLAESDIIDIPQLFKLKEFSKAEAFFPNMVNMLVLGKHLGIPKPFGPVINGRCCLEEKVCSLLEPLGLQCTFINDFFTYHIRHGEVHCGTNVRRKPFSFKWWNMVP
By IC50 is commonly meant the concentration at which inhibition is half-maximal. As for `COc1cc(C(=O)N2C[C@H](N)C[C@@H](F)C2)cn2nc(-c3cc4ccc(N5CCC(N(C)S(C)(=O)=O)CC5)cc4n3CC3CC3)c(C)c12` [Example 246, N-[1-(2-{6-[(3R,5R)-3-Amino-5-fluoropiperidine-1-carbonyl]-4-methoxy-3-methylpyrazolo[1,5-a]pyridin-2-yl}-1-(cyclopropylmethyl)-1H-indol-6-yl)piperidin-4-yl]-N-methylmethanesulfonamide], the 50% inhibitory concentration (IC50) was 130 nM.
Turning to `Cc1ccc2cc(-c3nn4cc(C(=O)N5CC6CCC5[C@@H]6N)ccc4c3C)n(CC3CC3)c2n1` (stereo partly drawn) [Example 66, ((7R)-7-Amino-2-azabicyclo[2.2.1]heptan-2-yl)(2-(1-(cyclopropylmethyl)-6-methyl-1H-pyrrolo[2,3-b]pyridin-2-yl)-3-methylpyrazolo[1,5-a]pyridin-6-yl)methanone], the IC50 was 59 nM.
Then `COc1cc(C(=O)N2C[C@H](N)C[C@@H](F)C2)cn2nc(-c3cc4cccc(C5CCN(C(=O)C6CCCCO6)CC5)c4n3CC3CC3)c(C)c12` (single isomer, unassigned) [Example 389], with 30 nM; and `CNC(=O)c1ccc(-c2ccc3cc(-c4nn5cc(C(=O)N6CC7CCC6[C@@H]7N)ccc5c4C)n(CC4CC4)c3n2)cn1` (stereo partly drawn) [Example 307, 5-(2-{6-[(7R)-7-Amino-2-azabicyclo[2.2.1]heptane-2-carbonyl]-3-methylpyrazolo[1,5-a]pyridin-2-yl}-1-(cyclopropylmethyl)-1H-pyrrolo[2,3-b]pyridin-6-yl)-N-methylpyridine-2-carboxamide], with 70 nM; and `Cc1c(-c2cc3cccc(C4CN(C(=O)C5CC(O)(C(F)(F)F)C5)C4)c3n2CC2CC2)nn2cc(C(=O)N3CCC[C@@H](N)C3)ccc12` (mixture of isomers) [Example 535, (R)-(3-Aminopiperidin-1-yl)(2-(1-(cyclopropylmethyl)-7-(1-(3-hydroxy-3-(trifluoromethyl)cyclobutane-1-carbonyl)azetidin-3-yl)-1H-indol-2-yl)-3-methylpyrazolo[1,5-a]pyridin-6-yl)methanone], with 70 nM.
Then `COc1cc(C(=O)N2C[C@H](N)C[C@@H](F)C2)cn2nc(-c3cc4ccc(-c5ccc(NC(C)=O)cc5)cc4n3CC3CC3)c(C)c12` [Example 214, N-[4-(2-{6-[(3R,5R)-3-Amino-5-fluoropiperidine-1-carbonyl]-4-methoxy-3-methylpyrazolo[1,5-a]pyridin-2-yl}-1-(cyclopropylmethyl)-1H-indol-6-yl)phenyl]acetamide], with 150 nM; and `COc1cc(C(=O)N2C[C@H](N)C[C@@H](F)C2)cn2nc(-c3cc4cccc(OCC5CC(=O)N(C)C5)c4n3CC3CC3)c(C)c12` (single isomer, unassigned) [Example 553], with 90 nM; and `COc1cc(C(=O)N2C[C@H](N)C[C@@H](F)C2)cn2nc(-c3cc4ccnc(OCC5CNC(=O)C5)c4n3CC3CC3)c(C)c12` (single isomer, unassigned; isomer 2) [Example 602], with 30 nM.
Then `COc1cc(C(=O)N2CC3CCC2[C@@H]3N)cn2nc(-c3cc4ccc(-c5ccc(OC(F)F)cc5)nc4n3CC3CC3)c(C)c12` (stereo partly drawn) [Example 11, ((7R)-7-Amino-2-azabicyclo[2.2.1]heptan-2-yl)(2-(1-(cyclopropylmethyl)-6-(4-(difluoromethoxy)phenyl)-1H-pyrrolo[2,3-b]pyridin-2-yl)-4-methoxy-3-methylpyrazolo[1,5-a]pyridin-6-yl)methanone], with 1370 nM; and `Cc1c(-c2cc3ccc(-c4cccc(O)c4F)cc3n2CC2CC2)nn2cc(C(=O)N3CC4CCC3[C@@H]4N)cc(F)c12` (stereo partly drawn) [Example 59, ((7R)-7-Amino-2-azabicyclo[2.2.1]heptan-2-yl)(2-(1-(cyclopropylmethyl)-6-(2-fluoro-3-hydroxyphenyl)-1H-indol-2-yl)-4-fluoro-3-methylpyrazolo[1,5-a]pyridin-6-yl)methanone], with 291 nM.
As to `Cc1c(-c2cc3ccc(-c4ccc(NS(C)(=O)=O)cc4)cc3n2CC2CC2)nn2cc(C(=O)N3CCC[C@@H](N)C3)ccc12` [Example 347, N-[4-(2-{6-[(3R)-3-Aminopiperidine-1-carbonyl]-3-methylpyrazolo[1,5-a]pyridin-2-yl}-1-(cyclopropylmethyl)-1H-indol-6-yl)phenyl]methanesulfonamide], the half-maximal inhibitory concentration (IC50) is 290 nM.
The same measure for `COc1cc(C(=O)N2C[C@H](N)C[C@@H](F)C2)cn2nc(-c3cc4cccc(OC[C@@H]5CCC(=O)N5)c4n3CC3CC3)c(C)c12` [Example 560, (S)-5-(((2-(6-((3R,5R)-3-Amino-5-fluoropiperidine-1-carbonyl)-4-methoxy-3-methylpyrazolo[1,5-a]pyridin-2-yl)-1-(cyclopropylmethyl)-1H-indol-7-yl)oxy)methyl)pyrrolidin-2-one]: 160 nM.
Then `COc1cc(C(=O)N2CC3CCC2[C@@H]3N)cc2oc(-c3cc4ccc(Cl)nc4n3CC3CC3)c(C)c12` (stereo partly drawn) [Example 146, ((7R)-7-Amino-2-azabicyclo[2.2.1]heptan-2-yl)(2-(6-chloro-1-(cyclopropylmethyl)-1H-pyrrolo[2,3-b]pyridin-2-yl)-4-methoxy-3-methylbenzofuran-6-yl)methanone], with 1210 nM; and `Cc1c(-c2cc3cccc(C4CCN(C(=O)[C@H]5CC[C@H](O)CC5)CC4)c3n2CC2CC2)nn2cc(C(=O)N3C[C@H](N)C[C@@H](F)C3)ccc12` [Example 451, ((3R,5R)-3-amino-5-fluoropiperidin-1-yl)(2-(1-(cyclopropylmethyl)-7-(1-((1r,4r)-4-hydroxycyclohexane-1-carbonyl)piperidin-4-yl)-1H-indol-2-yl)-3-methylpyrazolo[1,5-a]pyridin-6-yl)methanone], with 10 nM.
As for `Cc1c(-c2cc3cccc(C4CCN(C(=O)[C@H]5CC[C@@H](O)CC5)CC4)c3n2CC2CC2)nn2cc(C(=O)N3CCC[C@@H](N)C3)ccc12` [Example 450, ((R)-3-aminopiperidin-1-yl)(2-(1-(cyclopropylmethyl)-7-(1-((2s,4s)-4-hydroxycyclohexane-1-carbonyl)piperidin-4-yl)-1H-indol-2-yl)-3-methylpyrazolo[1,5-a]pyridin-6-yl)methanone], the IC50 came out at 50 nM.
With `Cc1c(-c2cc3cccc(OCC4CC(=O)N(C)C4)c3n2CC2CC2)nn2cc(C(=O)N3C[C@H](N)C[C@@H](F)C3)ccc12` (single isomer, unassigned) [Example 579], the half-maximal inhibitory concentration (IC50) is 240 nM.
Then `COc1cc(C(=O)N2CCC[C@@H](N)C2)cn2nc(-c3cc4cccc(C5CN(C(=O)[C@H](C)OC)C5)c4n3CC3CC3)c(C)c12` [Example 523, (S)-1-(3-(2-(6-((R)-3-Aminopiperidine-1-carbonyl)-4-methoxy-3-methylpyrazolo[1,5-a]pyridin-2-yl)-1-(cyclopropylmethyl)-1H-indol-7-yl)azetidin-1-yl)-2-methoxypropan-1-one], with 400 nM; and `Cc1c(-c2cc3cccc(OCC4CC(=O)N(C)C4)c3n2CC2CC2)nn2cc(C(=O)N3C[C@H](N)C[C@@H](F)C3)ccc12` (single isomer, unassigned) [Example 577], with 150 nM.
The same measure for `Cc1c(-c2cc3cccc(C4CCN(C(=O)C5CC(O)C5)CC4)c3n2CC2CC2)nn2cc(C(=O)N3C[C@H](N)C[C@@H](F)C3)ccc12` (mixture of isomers) [Example 466, ((3R,5R)-3-amino-5-fluoropiperidin-1-yl)(2-(1-(cyclopropylmethyl)-7-(1-(3-hydroxycyclobutane-1-carbonyl)piperidin-4-yl)-1H-indol-2-yl)-3-methylpyrazolo[1,5-a]pyridin-6-yl)methanone]: 190 nM.
As to `Cc1c(-c2cc3ccc(-c4ccc(O)c(F)c4)cc3n2CC2CC2)nn2cc(C(=O)N3C[C@H](N)C[C@@H](F)C3)ccc12` [Example 94, ((3R,5R)-3-Amino-5-fluoropiperidin-1-yl)(2-(1-(cyclopropylmethyl)-6-(3-fluoro-4-hydroxyphenyl)-1H-indol-2-yl)-3-methylpyrazolo[l,5-a]pyridin-6-yl)methanone], the IC50 was 934 nM.
Then `Cc1c(-c2cc3ccc(C(C)(O)C(F)(F)F)nc3n2CC2CC2)nn2cc(C(=O)N3CC4CCC3[C@@H]4N)ccc12` (stereo partly drawn) [Example 103, ((7R)-7-Amino-2-azabicyclo[2.2.1]heptan-2-yl)(2-(1-(cyclopropylmethyl)-6-(1,1,1-trifluoro-2-hydroxypropan-2-yl)-1H-pyrrolo[2,3-b]pyridin-2-yl)-3-methylpyrazolo[1,5-a]pyridin-6-yl)methanone], with 34 nM.

Source of the values: patent publication US12473304B2, “Heterocyclic PAD4 inhibitors” (BRISTOL-MYERS SQUIBB COMPANY, priority 2020, dated 2025).
